For one experiment, the target named is T1, B1R of the rat (Rattus norvegicus, UniProt P97583).
T1 construct: expressed in transfected cells; host or cells: CHO K1 cells (Chinese hamster ovary), stably transfected
T1 sequence (P97583 1-337): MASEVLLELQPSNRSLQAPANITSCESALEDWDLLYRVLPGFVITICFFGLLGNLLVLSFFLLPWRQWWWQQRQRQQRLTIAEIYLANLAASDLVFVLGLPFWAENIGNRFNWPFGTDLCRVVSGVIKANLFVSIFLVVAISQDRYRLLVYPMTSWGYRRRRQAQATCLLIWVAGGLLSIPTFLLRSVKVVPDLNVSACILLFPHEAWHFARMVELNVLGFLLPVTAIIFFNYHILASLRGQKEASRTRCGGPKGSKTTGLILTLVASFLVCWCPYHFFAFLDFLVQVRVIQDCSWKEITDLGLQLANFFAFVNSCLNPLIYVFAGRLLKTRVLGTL
Put plainly: FLIPR Ca2+ functional assay, B1R antagonism, rat B1R in CHO K1 cells. The note with it: test substance 10 μM; rB1R CHO K1 cells; agonist Des-Arg9 bradykinin at EC80; % of maximum achievable inhibition. In kind it is cell-based. A digest of the protocol:
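Stably transfected CHO K1 cells loaded with Fluo-4; Ca2+ fluorescence read on FLIPR (ex 488/em 540 nm). Compound preincubated 10-20 min, then agonist at EC80: Lys-Des-Arg9 bradykinin (human) or Des-Arg9 bradykinin (rat). % inhibition vs maximal inhibition; IC50 from concentration series, n=2-3, N>=2.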

The target in the next experiment is T2, human B1R (Homo sapiens, UniProt P46663).
T2 construct: expressed in transfected cells; host or cells: CHO K1 cells (Chinese hamster ovary), stably transfected
T2 sequence (P46663 1-353): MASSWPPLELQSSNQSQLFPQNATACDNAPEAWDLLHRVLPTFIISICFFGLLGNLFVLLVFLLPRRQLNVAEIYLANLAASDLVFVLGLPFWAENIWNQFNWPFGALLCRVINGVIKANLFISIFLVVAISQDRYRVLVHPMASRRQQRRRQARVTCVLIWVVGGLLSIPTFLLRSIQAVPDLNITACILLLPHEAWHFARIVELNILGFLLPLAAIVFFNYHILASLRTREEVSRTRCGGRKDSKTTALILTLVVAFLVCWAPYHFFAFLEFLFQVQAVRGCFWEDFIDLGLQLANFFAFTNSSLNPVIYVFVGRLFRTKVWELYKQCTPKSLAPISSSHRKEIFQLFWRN
The experiment in a line: FLIPR Ca2+ functional assay, B1R antagonism, human B1R in CHO K1 cells. It counts as cell-based. The settings on record: test substance 10 μM; hB1R CHO K1 cells; agonist Lys-Des-Arg9 bradykinin at EC80; % of maximum achievable inhibition. How it is done: The agonistic or antagonistic action of substances on the bradykinin 1 receptor (B1R) of the human and rat species can be quantified with ectopically expressing cell lines (CHO K1 cells) and with the aid of a Ca^2+-sensitive dye (Fluo-4) using a fluorescent imaging plate reader (FLIPR). The value in % activation is based on the Ca^2+ signal after addition of Lys-Des-Arg^9 bradykinin (0.5 nM) or Des-Arg^9 bradykinin (100 nM). Antagonists lead to a suppression of the Ca^2+ influx following administration of the agonist. The % inhibition in comparison with the maximum achievable inhibition is indicated.
1. Functional Investigation on the Bradykinin 1 Receptor (B1R) The agonistic or antagonistic action of substances can be determined on the bradykinin 1 receptor (B1R) of the human and rat species with the following assay. According to this assay, the Ca^2+ inflow through the channel is quantified with the aid of a Ca^2+-sensitive dye (Fluo-4 type, Molecular Probes Europe BV, Leiden, Netherlands) in a fluorescent imaging plate reader (FLIPR, Molecular Devices, Sunnyvale, USA). 2. Method: Chinese hamster ovary cells (CHO K1 cells) which are stably transfected with the human B1R gene (hB1R cells) or the B1R gene of the rat (rB1R cells) are used. For functional investigations these cells are plated-out onto black 96-well plates with a clear base (BD Biosciences, Heidelberg, Germany or Greiner, Frickenhausen, Germany) in a density of 20,000-35,000 cells/well. Overnight the cells are incubated at 37° C. and 5% CO2 in culture medium (hB1R cells: Ham's Nutrient Mixture F12, Gibco Invitrogen GmbH, Karlsruhe, Germany or DMEM, Sigma-Aldrich, Taufkirchen, Germany; rB1R cells: D-MEM/F12, Gibco Invitrogen, Karlsruhe, Germany) with 10 vol. % FBS (foetal bovine serum, Gibco Invitrogen GmbH, Karlsruhe, Germany or PAN Biotech GmbH, Aidenbach, Germany).
On the following day the cells are loaded with 2.13 μM Fluo-4 (Molecular Probes Europe BV, Leiden, Netherlands) in HBSS buffer (Hank's buffered saline solution, Gibco Invitrogen GmbH, Karlsruhe, Germany) with 2.5 mM probenecid (Sigma-Aldrich, Taufkirchen, Germany) and 10 mM HEPES (Sigma-Aldrich, Taufkirchen, Germany) for 60 min at 37° C. The plates are subsequently washed twice with HBSS buffer, and HBSS buffer which additionally contains 0.1% BSA (bovine serum albumin; Sigma-Aldrich, Taufkirchen, Germany), 5.6 mM glucose and 0.05% gelatine (Merck KGaA, Darmstadt, Germany) is added. After a further incubation of 20 minutes at RT, the plates are inserted into the FLIPR for Ca^2+ measurement. Alternatively they are washed with buffer A (15 mM HEPES, 80 mM NaCl, 5 mM KCl, 1.2 mM CaCl2, 0.7 mM MgSO4, 2 g/l glucose, 2.5 mM probenecid) and loaded with buffer A with added 2.5 μM Fluo-4 and 0.025% Pluronic F127 (Sigma-Aldrich, Taufkirchen, Germany). The cells are then washed twice with buffer A and incubated for 30 minutes with buffer A, which additionally contains 0.05% BSA and 0.05% gelatine, at RT and then used for Ca^2+ measurement in the FLIPR. The Ca^2+-dependent fluorescence is measured here before and after addition of substances (λex=488 nm, λem=540 nm). The quantification is performed by measuring the highest fluorescence intensity (FC, fluorescence counts) over time.
The FLIPR protocol comprises two additions of substance. Test substances (10 μM) are first pipetted onto the cells and the Ca^2+ inflow is compared with the control (hB1R: Lys-Des-Arg^9 bradykinin >=50 nM; rB1R: Des-Arg^9 bradykinin 10 μM). The value in % activation based on the Ca^2+ signal after addition of Lys-Des-Arg^9 bradykinin (>=50 nM) or Des-Arg^9 bradykinin (10 μM) is obtained therefrom. After incubation for 10-20 minutes, Lys-Des-Arg^9 bradykinin (hB1R) or Des-Arg^9 bradykinin (rB1R) is applied in the EC80 concentration and the inflow of Ca^2+ is likewise determined.
Antagonists lead to a suppression of the Ca^2+ inflow. The % inhibition in comparison with the maximum achievable inhibition is calculated. […]

The results in this text go back to patent US8158628B2, “Sulfonylated 1,2,3,4-tetrahydropyrrolo[1,2-a]pyrazine compounds and their use as pharmaceuticals” (Gruenenthal GmbH, priority 2009, dated 2012).

Regarding `COc1cc(C)c(S(=O)(=O)N2CCn3cccc3C2COCC(=O)N2CCC3(CC2)CCN(c2ccncc2)CC3)c(C)c1` (stereo not drawn) [Example 10, 2-((2-(4-Methoxy-2,6-dimethylphenylsulfonyl)-1,2,3,4-tetrahydropyrrolo[1,2-a]pyrazin-1-yl)methoxy)-1-(9-(pyridin-4-yl)-3,9-diazaspiro[5.5]undecan-3-yl)ethanone], the figures for the inhibition at 10 µM on B1R of the rat and on human B1R were 103% and 99.8%, respectively.

Turning to `O=C(COCC1c2cccn2CCN1S(=O)(=O)c1ccccc1C(F)(F)F)N1CCC2(CC1)CCN(c1ccncc1)CC2` (stereo not drawn) [Example 11, 1-(9-(Pyridin-4-yl)-3,9-diazaspiro[5.5]undecan-3-yl)-2-((2-(2-(trifluoromethyl)phenylsulfonyl)-1,2,3,4-tetrahydropyrrolo[1,2-a]pyrazin-1-yl)methoxy)ethanone], the inhibition at 10 µM at B1R of the rat amounted to 98.1%; at human B1R, 99.9%.

On to `CN(CCC1CCN(c2ccncc2)CC1)C(=O)COCC1c2cccn2CCN1S(=O)(=O)c1ccccc1C(F)(F)F` (stereo not drawn) [Example 12, N-Methyl-N-(2-(1-(pyridin-4-yl)piperidin-4-yl)ethyl)-2-((2-(2-(trifluoromethyl)phenylsulfonyl)-1,2,3,4-tetrahydropyrrolo[1,2-a]pyrazin-1-yl)methoxy)acetamide], for which the figures for the inhibition at 10 µM on B1R of the rat and on human B1R were 99.3% and 99.5%, respectively.

As for `COc1cc(C)c(S(=O)(=O)N2CCn3cccc3C2COCC(=O)N2CCC(Oc3ccncc3)CC2)c(C)c1` (stereo not drawn) [Example 13, 2-((2-(4-Methoxy-2,6-dimethylphenylsulfonyl)-1,2,3,4-tetrahydropyrrolo[1,2-a]pyrazin-1-yl)methoxy)-1-(4-(pyridin-4-yloxy)piperidin-1-yl)ethanone], the inhibition at 10 µM on B1R of the rat and at human B1R was 100% throughout.

Take `Cc1cccc(Cl)c1S(=O)(=O)N1CCn2cccc2C1COCC(=O)N1CCC2(CC1)CCN(c1ccncc1)CC2` (stereo not drawn) [Example 15, 2-((2-(2-Chloro-6-methylphenylsulfonyl)-1,2,3,4-tetrahydropyrrolo[1,2-a]pyrazin-1-yl)methoxy)-1-(9-(pyridin-4-yl)-3,9-diazaspiro[5.5]undecan-3-yl)ethanone]: the inhibition at 10 µM is 98.3% on B1R of the rat and 99.9% at human B1R.

Take `Cc1cccc(Cl)c1S(=O)(=O)N1CCn2cccc2C1COCC(=O)N(C)CCC1CCN(c2ccncc2)CC1` (stereo not drawn) [Example 16, 2-((2-(2-Chloro-6-methylphenylsulfonyl)-1,2,3,4-tetrahydropyrrolo[1,2-a]pyrazin-1-yl)methoxy)-N-methyl-N-(2-(1-(pyridin-4-yl)piperidin-4-yl)ethyl)acetamide]: the figures for the inhibition at 10 µM on B1R of the rat and on human B1R were 98.5% and 99.9%, respectively.

In the case of `COc1cc(C)c(S(=O)(=O)N2CCn3cccc3C2CC(=O)NC2CCNCC2(C)C)c(C)c1` (stereo not drawn) [Example 17, N-(3,3-Dimethylpiperidin-4-yl)-2-(2-(4-methoxy-2,6-dimethylphenylsulfonyl)-1,2,3,4-tetrahydropyrrolo[1,2-a]pyrazin-1-yl)acetamide], the inhibition at 10 µM on B1R of the rat was found to be 99.2%; at human B1R, 97.4%.

Consider `COc1cc(C)c(S(=O)(=O)N2CCn3cccc3C2CC(=O)N2CCC3(CC2)CCN(c2ccncc2)C3)c(C)c1` (stereo not drawn) [Example 18, 2-(2-(4-Methoxy-2,6-dimethylphenylsulfonyl)-1,2,3,4-tetrahydro-pyrrolo[1,2-a]pyrazin-1-yl)-1-(2-(pyridin-4-yl)-2,8-diazaspiro[4.5]decan-8-yl)-ethanone], for which the values for the inhibition at 10 µM at B1R of the rat and on human B1R were 94.8% and 99.9%, respectively.

Take `O=C(COCC1c2cccn2CCN1S(=O)(=O)c1ccccc1C(F)(F)F)N1CCC2(CC1)CCN(c1ccncc1)C2` (stereo not drawn) [Example 21, 1-(2-(Pyridin-4-yl)-2,8-diazaspiro[4.5]decan-8-yl)-2-((2-(2-(trifluoromethyl)phenylsulfonyl)-1,2,3,4-tetrahydropyrrolo[1,2-a]pyrazin-1-yl)methoxy)ethanone]: the values for the inhibition at 10 µM on B1R of the rat and at human B1R were 113% and 100%, respectively.

`COc1cc(C)c(S(=O)(=O)N2CCn3cccc3C2COCC(=O)N2CCC3(CCNC3)CC2)c(C)c1` (stereo not drawn) [Example 22, 2-((2-(4-Methoxy-2,6-dimethylphenylsulfonyl)-1,2,3,4-tetrahydro-pyrrolo[1,2-a]pyrazin-1-yl)methoxy)-1-(2,8-diazaspiro[4.5]decan-8-yl)ethanone]: the inhibition at 10 µM worked out at 113% on B1R of the rat and 99.6% at human B1R.

With `COc1cc(C)c(S(=O)(=O)N2CCn3cccc3C2COCC(=O)N2[C@@H]3CC[C@H]2C[C@H](Oc2ccncc2)C3)c(C)c1` (stereo partly drawn) [Example 23, 2-((2-(4-Methoxy-2,6-dimethylphenylsulfonyl)-1,2,3,4-tetrahydropyrrolo[1,2-a]pyrazin-1-yl)methoxy)-1-((1R,3S,5S)-3-(pyridin-4-yloxy)-8-azabicyclo[3.2.1]octan-8-yl)ethanone], the inhibition at 10 µM on B1R of the rat stood at 108%; on human B1R it was 100%.

For `COc1cc(C)c(S(=O)(=O)N2CCn3cccc3C2COCC(=O)N2CCC(OCCN3CCCC3)(c3cccnc3)CC2)c(C)c1` (stereo not drawn) [Example 24, 2-((2-(4-Methoxy-2,6-dimethylphenylsulfonyl)-1,2,3,4-tetrahydropyrrolo[1,2-a]pyrazin-1-yl)methoxy)-1-(4-(pyridin-3-yl)-4-(2-(pyrrolidin-1-yl)ethoxy)piperidin-1-yl)ethanone], the values for the inhibition at 10 µM at B1R of the rat and at human B1R were 114% and 99.9%, respectively.

By inhibition is commonly meant the change of the read-out against control, counted positive when it falls.
